Assay results: ChEMBL document CHEMBL1146738, “Synthesis and glucose-6-phosphatase inhibitory activity of (thiouriedo)alkanoic acid esters” (Bioorg Med Chem Lett, 2004)

Each molecule was assayed against T1, Glucose-6-phosphatase catalytic subunit 1 (Rattus norvegicus) (UniProt P43428) (assay: In vitro inhibition of glucose-6-phosphatase obtained from rat was determined at 100 uM concentration).
T1 sequence (whole entry): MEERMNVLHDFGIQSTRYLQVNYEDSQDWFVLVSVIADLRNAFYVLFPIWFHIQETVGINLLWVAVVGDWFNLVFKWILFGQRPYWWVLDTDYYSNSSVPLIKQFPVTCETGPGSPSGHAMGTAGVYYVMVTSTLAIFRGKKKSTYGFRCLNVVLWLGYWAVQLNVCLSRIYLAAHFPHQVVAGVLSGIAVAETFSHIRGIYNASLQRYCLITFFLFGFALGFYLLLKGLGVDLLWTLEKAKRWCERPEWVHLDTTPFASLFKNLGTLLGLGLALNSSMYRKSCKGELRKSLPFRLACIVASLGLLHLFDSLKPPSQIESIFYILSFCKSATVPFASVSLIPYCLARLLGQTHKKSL
With COC(=O)C/N=C(\S)Nc1ccc(Cl)cn1 the inhibition was 74.6%. Work on COC(=O)C(Cc1c[nH]c2ccccc12)/N=C(\S)Nc1ccc(Cl)cn1 (stereo not given) yielded an inhibition of 52.2%. Work on CCOC(=O)C(Cc1ccccc1)/N=C(\S)Nc1ccc(Cl)cn1 (stereo not given) yielded an inhibition of 50%. CCOC(=O)CC/N=C(\S)Nc1ccccn1 gave an inhibition of 18%. CCOC(=O)CC/N=C(\S)Nc1ccc(Cl)cn1 was tested, and the inhibition was 54.4%. Molecule N=C(N)/N=C(\S)Nc1ccccn1 has an inhibition of 20%. In the case of CCOC(=O)C(Cc1ccccc1)/N=C(\S)Nc1ccccn1 (stereo not given), the inhibition is reported as 29%. COC(=O)C(Cc1c[nH]c2ccccc12)/N=C(\S)Nc1ccccn1 (stereo not given) was tested, and the inhibition was 21.5%. N/N=C(\S)Nc1ccccn1 was tested, and the inhibition was 38.5%. COC(=O)C(C)/N=C(\S)Nc1ccccn1 (stereo not given) gave an inhibition of 17.7%.
